Test results: patent publication US20020072485A1, “Prophylactic use of N-methyl-D-aspartate (NMDA) antagonists” (priority 2000, published 2002)

Legend:
[1] = tested on: static and dynamic allodynia in rats (paw incision model); test: Paw incision model for surgical pain, pre-surgery administration; assay type: in vivo, rat; conditions: for PWL (paw withdrawal latency) compared to vehicle / PWT (paw withdrawal threshold) compared to vehicle: 72 hours, pre-surgical 10 and 30 mg/kg CP-101,606, pregabalin 30 mg/kg s.c.
Text: (§1) Basically, in this animal model, an incision is made in the hind paw of the rats, which induces a reproducible and quantifiable mechanical hyperalgesia in the rats lasting several days. Rats are anesthetized, and the plantar surface of the right hind paw of each rat is incised through the skin and fascia. The wound is then closed, for example with sutures, and allowed to heal. The rats are placed into wire mesh bottom cages, allowing access to the underside of their paws. After habituation, tactile allodynia (or “static allodynia”) can be evaluated by touching the right hind paw plantar surface with von Frey hairs in ascending order of force (measured in grams) until a paw-withdrawal response (paw withdrawal threshold or “PWT”) is elicited. Dynamic allodynia can be evaluated by stoking the plantar surface of the right hind paw and measuring (in seconds) the amount of time it takes for a rat to withdraw its paw (paw withdrawal latency or “PWL”).
In the pre-surgery administration assay, a PWT and PWL baseline is measured prior to drug administration and incision. The rats are then given drug (CP-101,606, at separate doses of 3, 10 or 30 mg/kg s.c.) or are given pregabalin (30 mg/kg s.c., as a positive control)), or vehicle (s.c.). The right hind paw each rat is then incised as described above. Measurements are then taken periodically, as described above.

[2] = tested on: static and dynamic allodynia in rats (paw incision model); test: Paw incision model for surgical pain, post-surgery administration; assay type: in vivo, rat
Text: as §1
CP-101,606 was also tested post-surgically using the paw incision model, basically as described above. However, in this assay, rats are administered CP-101,606 (3, 10, or 30 mg/kg, s.c.), pregabalin (30 mg/kg, s.c.), or vehicle (s.c.) post-incision. A baseline is measured before incision and after incision, prior to drug. […] CP-101,606 produced a full reversal of static allodynia and a partial (approximately 40%) reversal of the dynamic subtype.

[3] = target: NMDA receptors comprised of NR1/NR2B subunits (Homo sapiens, UniProt Q05586+Q13224); conditions: selectivity between NMDA receptor subtypes; cited from earlier work
[4] = tested on: animal models of pain perception; conditions: literature (Bernardi 1996; Taniguchi 1997); cited from earlier work
[5] = pre-surgery administration, 30 mg/kg s.c.
[6] = pre-surgery administration, s.c.
[7] = post-incision administration, 30 mg/kg s.c.
[8] = post-incision administration, s.c.

Chain of NMDA receptors comprised of NR1/NR2B subunits (Q13224 27-1484, other chains not shown): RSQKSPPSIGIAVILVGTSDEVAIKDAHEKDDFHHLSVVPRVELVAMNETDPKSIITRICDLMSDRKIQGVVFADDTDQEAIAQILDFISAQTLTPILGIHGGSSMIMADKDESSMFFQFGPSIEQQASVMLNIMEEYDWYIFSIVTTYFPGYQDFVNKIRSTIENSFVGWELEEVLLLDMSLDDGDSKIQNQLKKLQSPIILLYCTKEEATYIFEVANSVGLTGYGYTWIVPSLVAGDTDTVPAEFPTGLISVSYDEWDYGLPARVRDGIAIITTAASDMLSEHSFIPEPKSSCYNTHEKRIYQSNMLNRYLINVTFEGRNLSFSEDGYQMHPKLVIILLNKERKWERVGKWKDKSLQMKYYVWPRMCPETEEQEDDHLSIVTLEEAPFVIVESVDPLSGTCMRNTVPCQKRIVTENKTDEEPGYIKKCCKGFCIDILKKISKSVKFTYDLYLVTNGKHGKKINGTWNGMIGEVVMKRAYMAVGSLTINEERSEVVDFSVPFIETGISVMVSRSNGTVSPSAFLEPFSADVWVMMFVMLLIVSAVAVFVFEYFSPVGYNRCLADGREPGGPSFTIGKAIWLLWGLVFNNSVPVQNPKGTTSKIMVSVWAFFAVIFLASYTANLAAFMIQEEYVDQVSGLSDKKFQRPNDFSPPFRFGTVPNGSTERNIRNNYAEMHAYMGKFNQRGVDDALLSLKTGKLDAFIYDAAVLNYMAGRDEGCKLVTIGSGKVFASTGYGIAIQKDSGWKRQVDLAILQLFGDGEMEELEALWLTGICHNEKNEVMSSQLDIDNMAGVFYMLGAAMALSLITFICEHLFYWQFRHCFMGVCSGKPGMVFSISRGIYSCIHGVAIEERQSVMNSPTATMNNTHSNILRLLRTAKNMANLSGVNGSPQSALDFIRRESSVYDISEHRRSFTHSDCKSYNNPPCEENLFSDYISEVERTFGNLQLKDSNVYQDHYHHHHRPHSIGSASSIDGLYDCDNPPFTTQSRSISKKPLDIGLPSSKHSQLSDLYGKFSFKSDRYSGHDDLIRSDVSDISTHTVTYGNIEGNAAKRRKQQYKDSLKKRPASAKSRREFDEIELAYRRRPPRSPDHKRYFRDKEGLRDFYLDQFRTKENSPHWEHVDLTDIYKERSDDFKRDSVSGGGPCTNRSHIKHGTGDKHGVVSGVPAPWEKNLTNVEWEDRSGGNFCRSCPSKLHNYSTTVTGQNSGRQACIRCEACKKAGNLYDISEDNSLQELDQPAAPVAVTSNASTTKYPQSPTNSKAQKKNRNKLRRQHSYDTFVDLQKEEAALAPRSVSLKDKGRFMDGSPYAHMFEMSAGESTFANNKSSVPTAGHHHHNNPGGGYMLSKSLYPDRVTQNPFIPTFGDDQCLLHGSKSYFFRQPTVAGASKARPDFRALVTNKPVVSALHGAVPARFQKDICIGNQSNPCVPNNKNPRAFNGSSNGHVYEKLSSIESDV

SMILES: Oc1ccc2c(c1)OC[C@@H](N1CCC(O)(c3ccc(F)cc3)CC1)[C@H]2O (relative stereo)
- melting point: 159 to 160 °C

SMILES: C[C@@H]([C@@H](O)c1ccc(O)cc1)N1CCC(O)(c2ccccc2)CC1 [CP-101,606, (+)-(1S, 2S)-1-(4-hydroxy-phenyl)-2-(4-hydroxy-4-phenylpiperidino)-1-propanol]
- PWL (paw withdrawal latency) compared to vehicle [1]: longer
- PWT (paw withdrawal threshold) compared to vehicle [1]: higher
- duration of antiallodynic action ([1]; following pre-surgical administration): at least 48 hours
- latest time at which a preventive effect was seen ([1]; post surgery, pre-surgical administration): 72 h
- time of peak effect, dynamic allodynia [1, 5]: two
- time of peak effect, static allodynia [1, 5]: two
- effect on static and dynamic subtypes of allodynia ([1]; pre-surgery administration, 3, 10 or 30 mg/kg s.c., rats): dose-dependently blocked both static and dynamic subtypes of allodynia
- blockade of dynamic allodynia [1, 6]: near full blockade
- blockade of static allodynia [1, 6]: full blockade
- MED (minimum effective dosage), dynamic allodynia ([1]; pre-surgery administration, s.c., PWL): 10 mg/kg
- MED (minimum effective dosage), static allodynia ([1]; pre-surgery administration, s.c., PWT (von Frey hairs)): 10 mg/kg
- duration of effect, dynamic allodynia [2, 7]: two
- duration of effect, static allodynia [2, 7]: three
- time of peak effect, dynamic allodynia [2, 7]: two
- effect on static and dynamic subtypes of allodynia ([2]; post-incision administration, 3, 10 or 30 mg/kg s.c., rats): dose-dependently diminished both static and dynamic subtypes of allodynia
- MED, dynamic allodynia [2, 8]: 30 mg/kg
- MED, static allodynia [2, 8]: 10 mg/kg
- reversal of static allodynia [2, 8]: full reversal
- reversal of dynamic allodynia ([2]; post-incision administration, s.c., partial reversal): approximately 40%

SMILES: CC(C(O)c1ccc(O)cc1)N1CCC(Cc2ccccc2)CC1 (stereo not drawn) [Ifenprodil, ifenprodil]
- blockade of ion current, NR1/NR2B compared to NR1/NR2A, NR2C, or NR2D subunits [3]: more potent and efficacious
- analgesic activity [4]: significant analgesic activity

SMILES: CC(C)C[C@H](CN)CC(=O)O [pregabalin, reference compound]
- PWL (paw withdrawal latency) compared to vehicle [1]: longer
- PWT (paw withdrawal threshold) compared to vehicle [1]: higher
